Laboratory results as given in patent US9969687B2, “Compounds useful as CCR9 modulators” (Norgine B.V., priority 2013, dated 2018).

Legend:
CCR9 [1] = target: T1, CCR9 (Homo sapiens (Human), UniProt P51686); assay: FLIPR calcium flux assay using hCCR9 over expressed cells (Chem1-hCCR9), TECK stimulation; assay type: cell-based; settings: Chem1-hCCR9 overexpressing cells
Procedure: Biological Activity: FLIPR Assay Using hCCR9 Over Expressed Cells
A calcium flux assay was used to determine the ability of the compounds to interfere with the binding between CCR9 and its chemokine ligand (TECK) in Chem1-hCCR9 overexpressing cells. hCCR9 overexpressing cells were seeded (25,000 cells/well) into black Poly-D-Lysine coated clear bottom 96-well plates (BD Biosciences, Cat #356640) and incubated overnight at 37° C./5% CO2 in a humidified incubator. Media was aspirated and cells washed twice with 100 μL assay buffer (1×HBSS, 20 mM HEPES) containing 2.5 mM Probenecid. A 0.3× Fluo-4 NW calcium dye was prepared in assay buffer containing 5 mM Probenecid and stored in the dark. Each well was loaded with 100 μL of 0.3× Fluo-4 NW calcium dye and incubated at 37° C./5% CO2 for 60 minutes and then at room temperature for 30 minutes. A half-log serially diluted concentration response curve was prepared at a 3× final assay concentration for each compound (10 μM-0.1 nM final assay concentration) and 50 μL of the compound then transferred to the cells (150 μL final volume) for 60 minutes prior to stimulation (30 minutes at 37° C./5% CO2 and 30 minutes at room temperature). TECK was diluted to 4× its EC80 in assay buffer (containing 0.1% [w/v] bovine serum albumin [BSA]) and 50 μL dispensed through the fluorometric imaging plate reader (FLIPR) instrument to stimulate the cells (200 μL final volume). The increase in intracellular calcium levels was measured with the FLIPR instrument. The potency of the compound as a CCR9 antagonist was calculated as an IC50 using GraphPad Prism software (variable slope four parameter). The Ki of the compound was determined from the IC50 values using the following equation. IC50/1+(Agonist (TECK) conc. used in assay/EC50 of agonist (TECK) generated on day of experiment) Ki calculation: […]

CCR9 [2] = target: T1, CCR9; assay: FLIPR calcium flux assay using MOLT4 cells, TECK stimulation; assay type: cell-based; settings: MOLT4 cells (human T-cell line)
Procedure: Biological Activity: FLIPR Assay Using MOLT4 Cells
A calcium flux assay was used to determine the ability of the compounds to interfere with the binding between CCR9 and its chemokine ligand (TECK) in MOLT4 cells (a human T-cell line). MOLT4 cells were seeded (100,000 cells/well) in corning cell culture plates (Cat #3603) in assay buffer (1×HBSS, 20 mM HEPES) containing 2.5 mM Probenecid. The plate was centrifuged at 1200 rpm for 3 minutes and incubated at 37° C./5% CO2 for 2 hours. A 0.3× Fluo-4 NW calcium dye was prepared in assay buffer containing 5 mM Probenecid and stored in the dark. Each well was loaded with 25 μl of 0.3× Fluo-4 NW calcium dye and incubated at 37° C./5% CO2 for 60 minutes and then at room temperature for 30 minutes. A half-log serially diluted concentration response curve was prepared at a 4× concentration for each (10 μM-0.1 nM final assay concentration) and 25 μL of the compound then transferred to the cells (100 μL final volume) for 60 minutes prior to stimulation (30 minutes at 37° C./5% CO2 and 30 minutes at room temperature). […] The increased in intracellular calcium levels was measured with the FLIPR instrument. The potency of the compound as CCR9 antagonist was calculated as an IC50 using GraphPad Prism software (variable slope four parameter). The Ki of the compound was determined from the IC50 values using the following equation. IC50/1+(Agonist (TECK) conc. used in assay/EC50 of agonist (TECK) generated on day of experiment) Ki calculation: […]

T1 sequence (P51686 whole entry): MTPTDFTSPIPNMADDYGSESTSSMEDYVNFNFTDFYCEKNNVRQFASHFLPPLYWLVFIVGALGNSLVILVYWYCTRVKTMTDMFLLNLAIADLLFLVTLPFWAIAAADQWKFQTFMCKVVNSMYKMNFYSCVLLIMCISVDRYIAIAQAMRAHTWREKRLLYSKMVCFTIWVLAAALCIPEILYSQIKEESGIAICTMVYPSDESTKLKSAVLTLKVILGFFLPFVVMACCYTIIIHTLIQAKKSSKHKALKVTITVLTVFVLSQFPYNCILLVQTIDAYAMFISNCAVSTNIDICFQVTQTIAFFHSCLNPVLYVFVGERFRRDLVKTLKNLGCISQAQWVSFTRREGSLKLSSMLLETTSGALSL

Ki (CCR9 [1])	Ki (CCR9 [2])	SMILES
135 nM	44 nM	COC(=O)c1sccc1N1C(=O)c2c(Cl)ccc(NS(=O)(=O)c3ccc(C(C)(C)C)cc3)c2C1=O [Compound 155, methyl 3-(4-((4-(tert-butyl)phenyl)sulfonamido)-7-chloro-1,3-dioxoisoindolin-2-yl)thiophene-2-carboxylate]
776 nM	456 nM	Cc1ccc(NS(=O)(=O)c2ccc(C(C)(C)C)cc2)c2c1C(=O)N(Cc1cccnc1)C2=O [Compound 160]
12 nM	3 nM	Cc1ncccc1N1C(=O)c2c(Cl)ccc(NS(=O)(=O)c3ccc(C(C)(C)C)cc3)c2C1=O [Compound 175, 4-(tert-butyl)-N-(7-chloro-2-(2-methylpyridin-3-yl)-1,3-dioxoisoindolin-4-yl)benzenesulfonamide]
13 nM	6 nM	Cc1c(N2C(=O)c3c(Cl)ccc(NS(=O)(=O)c4ccc(C(C)(C)C)cc4)c3C2=O)ccc[n+]1[O-] [Compound 176, 3-(4-(4-(tert-butyl)phenylsulfonamido)-7-chloro-1,3-dioxoisoindolin-2-yl)-2-methylpyridine 1-oxide]
57 nM	16 nM	CC(C)(C)c1ccc(S(=O)(=O)Nc2ccc(Cl)c3c2C(=O)N(c2sccc2C#N)C3=O)cc1 [Compound 179]
58 nM	19 nM	Cc1ccc(N2C(=O)c3c(Cl)ccc(NS(=O)(=O)c4ccc(C(C)(C)C)cc4)c3C2=O)cn1 [Compound 182]
3 nM	3 nM	COc1ncccc1N1C(=O)c2c(Cl)ccc(NS(=O)(=O)c3ccc(C(C)(C)C)cc3)c2C1=O [Compound 183]
24 nM	16 nM	CC(C)(C)c1ccc(S(=O)(=O)Nc2ccc(Cl)c3c2C(=O)N(c2cnccn2)C3=O)cc1 [Compound 184]
23 nM	7 nM	Cc1ccncc1N1C(=O)c2c(Cl)ccc(NS(=O)(=O)c3ccc(C(C)(C)C)cc3)c2C1=O [Compound 185]
89 nM	15 nM	Cc1cc[n+]([O-])cc1N1C(=O)c2c(Cl)ccc(NS(=O)(=O)c3ccc(C(C)(C)C)cc3)c2C1=O [Compound 188]
34 nM	8 nM	COc1cc[n+]([O-])cc1N1C(=O)c2c(Cl)ccc(NS(=O)(=O)c3ccc(C(C)(C)C)cc3)c2C1=O [Compound 189]
81 nM	24 nM	COc1cc(C#N)cc(N2C(=O)c3c(Cl)ccc(NS(=O)(=O)c4ccc(C(C)(C)C)cc4)c3C2=O)c1 [Compound 190]
33 nM	20 nM	CC(C)(C)c1ccc(S(=O)(=O)Nc2ccc(Cl)c3c2C(=O)N(Cc2ccccn2)C3=O)cc1 [Compound 191]
12 nM	4 nM	Cn1cncc1N1C(=O)c2c(Cl)ccc(NS(=O)(=O)c3ccc(C(C)(C)C)cc3)c2C1=O [Compound 192]
21 nM	16 nM	Cn1ccc(CN2C(=O)c3c(Cl)ccc(NS(=O)(=O)c4ccc(C(C)(C)C)cc4)c3C2=O)n1 [Compound 193]
6 nM	4 nM	COc1c(N2C(=O)c3c(Cl)ccc(NS(=O)(=O)c4ccc(C(C)(C)C)cc4)c3C2=O)ccc[n+]1[O-] [Compound 194]
42 nM	31 nM	CC(C)(C)c1ccc(S(=O)(=O)Nc2ccc(Cl)c3c2C(=O)N(Cc2cncc(C#N)c2)C3=O)cc1 [Compound 195]
103 nM	46 nM	CC(Cc1cccnc1)N1C(=O)c2c(Cl)ccc(NS(=O)(=O)c3ccc(C(C)(C)C)cc3)c2C1=O (centres unmarked) [Compound 196]
40 nM	21 nM	CCOc1cc(N2C(=O)c3c(Cl)ccc(NS(=O)(=O)c4ccc(C(C)(C)C)cc4)c3C2=O)c[n+]([O-])c1 [Compound 197]
10 nM	6 nM	CC(C)(C)c1ccc(S(=O)(=O)Nc2ccc(Cl)c3c2C(=O)N(Cc2cccc[n+]2[O-])C3=O)cc1 [Compound 199]
92 nM	45 nM	CC(C)(C)c1ccc(S(=O)(=O)Nc2ccc(Cl)c3c2C(=O)N(c2cc(C#N)ccn2)C3=O)cc1 [Compound 200]
17 nM	8 nM	CC(C)(C)c1ccc(S(=O)(=O)Nc2ccc(Cl)c3c2C(=O)N(Cc2ccncc2)C3=O)cc1 [Compound 201]

Ki (CCR9 [1])	Ki (CCR9 [2])	SMILES
49 nM	22 nM	COc1cccnc1N1C(=O)c2c(Cl)ccc(NS(=O)(=O)c3ccc(C(C)(C)C)cc3)c2C1=O [Compound 202]
59 nM	38 nM	CC(C)(C)c1ccc(S(=O)(=O)Nc2ccc(Cl)c3c2C(=O)N(c2cccnn2)C3=O)cc1 [Compound 203]
30 nM	7 nM	CC(C)(C)c1ccc(S(=O)(=O)Nc2ccc(Cl)c3c2C(=O)N(Cc2ncccn2)C3=O)cc1 [Compound 204]
36 nM	30 nM	CC(C)(C)c1ccc(S(=O)(=O)Nc2ccc(Cl)c3c2C(=O)N(c2cccc(C#N)n2)C3=O)cc1 [Compound 207]
16 nM	24 nM	Cc1ccncc1CN1C(=O)c2c(Cl)ccc(NS(=O)(=O)c3ccc(C(C)(C)C)cc3)c2C1=O [Compound 208]
77 nM	30 nM	CC(C)(C)c1ccc(S(=O)(=O)Nc2ccc(Cl)c3c2C(=O)N(Cc2cc[n+]([O-])cc2)C3=O)cc1 [Compound 209]
61 nM	33 nM	COc1ccc[n+]([O-])c1N1C(=O)c2c(Cl)ccc(NS(=O)(=O)c3ccc(C(C)(C)C)cc3)c2C1=O [Compound 211]
60 nM	59 nM	COc1cncc(CN2C(=O)c3c(Cl)ccc(NS(=O)(=O)c4ccc(C(C)(C)C)cc4)c3C2=O)c1 [Compound 212]
23 nM	12 nM	Cc1cc[n+]([O-])cc1CN1C(=O)c2c(Cl)ccc(NS(=O)(=O)c3ccc(C(C)(C)C)cc3)c2C1=O [Compound 213]
53 nM	20 nM	Cc1cc(N2C(=O)c3c(Cl)ccc(NS(=O)(=O)c4ccc(C(C)(C)C)cc4)c3C2=O)c[n+]([O-])c1 [Compound 214]
49 nM	23 nM	Cc1ccnc(N2C(=O)c3c(Cl)ccc(NS(=O)(=O)c4ccc(C(C)(C)C)cc4)c3C2=O)n1 [Compound 216]
39 nM	35 nM	Cc1cnc(N2C(=O)c3c(Cl)ccc(NS(=O)(=O)c4ccc(C(C)(C)C)cc4)c3C2=O)s1 [Compound 217]
26 nM	7 nM	CC(C)(C)c1ccc(S(=O)(=O)Nc2ccc(Cl)c3c2C(=O)N(c2cccnc2F)C3=O)cc1 [Compound 218]
30 nM	10 nM	CC(C)(C)c1ccc(S(=O)(=O)Nc2ccc(Cl)c3c2C(=O)N(c2ccc(F)cn2)C3=O)cc1 [Compound 219]
42 nM	12 nM	Cc1cncc(N2C(=O)c3c(Cl)ccc(NS(=O)(=O)c4ccc(C(C)(C)C)cc4)c3C2=O)n1 [Compound 220]
12 nM	6 nM	CC(C)(C)c1ccc(S(=O)(=O)Nc2ccc(Cl)c3c2C(=O)N(c2ccccn2)C3=O)cc1 [Compound 222]
6 nM	5 nM	Cc1ccc(N2C(=O)c3c(Cl)ccc(NS(=O)(=O)c4ccc(C(C)(C)C)cc4)c3C2=O)c(C)n1 [Compound 224]
51 nM	54 nM	Cc1ccnc(N2C(=O)c3c(Cl)ccc(NS(=O)(=O)c4ccc(C(C)(C)C)cc4)c3C2=O)c1 [Compound 225]
23 nM	21 nM	Cc1ccc(N2C(=O)c3c(Cl)ccc(NS(=O)(=O)c4ccc(C(C)(C)C)cc4)c3C2=O)nc1 [Compound 226]
32 nM	14 nM	Cc1ccc(N2C(=O)c3c(Cl)ccc(NS(=O)(=O)c4ccc(C(C)(C)C)cc4)c3C2=O)c(C)[n+]1[O-] [Compound 227]
6 nM	5 nM	Cc1cccc(N2C(=O)c3c(Cl)ccc(NS(=O)(=O)c4ccc(C(C)(C)C)cc4)c3C2=O)n1 [Compound 228]
